Experimental data as given in ChEMBL document CHEMBL2407010, “Nitric oxide donating anilinopyrimidines: synthesis and biological evaluation as EGFR inhibitors” (Eur J Med Chem, 2013).
Calls of active or inactive are those of the source. No cut-off for these calls is given here.

What was measured:
[1] = biological target: Epidermal growth factor receptor (Homo sapiens, UniProt P00533, L858R/T790M); experiment: Inhibition of EGFR L858R/T790M mutant (unknown origin) using Tyr 4 peptide as substrate after 1.5 hrs by FRET based Z'-lyte assay; format: protein assay
Sequence of Epidermal growth factor receptor (Homo sapiens, UniProt P00533, L858R/T790M) (P00533 25-1210 T790M/L858R limits assumed): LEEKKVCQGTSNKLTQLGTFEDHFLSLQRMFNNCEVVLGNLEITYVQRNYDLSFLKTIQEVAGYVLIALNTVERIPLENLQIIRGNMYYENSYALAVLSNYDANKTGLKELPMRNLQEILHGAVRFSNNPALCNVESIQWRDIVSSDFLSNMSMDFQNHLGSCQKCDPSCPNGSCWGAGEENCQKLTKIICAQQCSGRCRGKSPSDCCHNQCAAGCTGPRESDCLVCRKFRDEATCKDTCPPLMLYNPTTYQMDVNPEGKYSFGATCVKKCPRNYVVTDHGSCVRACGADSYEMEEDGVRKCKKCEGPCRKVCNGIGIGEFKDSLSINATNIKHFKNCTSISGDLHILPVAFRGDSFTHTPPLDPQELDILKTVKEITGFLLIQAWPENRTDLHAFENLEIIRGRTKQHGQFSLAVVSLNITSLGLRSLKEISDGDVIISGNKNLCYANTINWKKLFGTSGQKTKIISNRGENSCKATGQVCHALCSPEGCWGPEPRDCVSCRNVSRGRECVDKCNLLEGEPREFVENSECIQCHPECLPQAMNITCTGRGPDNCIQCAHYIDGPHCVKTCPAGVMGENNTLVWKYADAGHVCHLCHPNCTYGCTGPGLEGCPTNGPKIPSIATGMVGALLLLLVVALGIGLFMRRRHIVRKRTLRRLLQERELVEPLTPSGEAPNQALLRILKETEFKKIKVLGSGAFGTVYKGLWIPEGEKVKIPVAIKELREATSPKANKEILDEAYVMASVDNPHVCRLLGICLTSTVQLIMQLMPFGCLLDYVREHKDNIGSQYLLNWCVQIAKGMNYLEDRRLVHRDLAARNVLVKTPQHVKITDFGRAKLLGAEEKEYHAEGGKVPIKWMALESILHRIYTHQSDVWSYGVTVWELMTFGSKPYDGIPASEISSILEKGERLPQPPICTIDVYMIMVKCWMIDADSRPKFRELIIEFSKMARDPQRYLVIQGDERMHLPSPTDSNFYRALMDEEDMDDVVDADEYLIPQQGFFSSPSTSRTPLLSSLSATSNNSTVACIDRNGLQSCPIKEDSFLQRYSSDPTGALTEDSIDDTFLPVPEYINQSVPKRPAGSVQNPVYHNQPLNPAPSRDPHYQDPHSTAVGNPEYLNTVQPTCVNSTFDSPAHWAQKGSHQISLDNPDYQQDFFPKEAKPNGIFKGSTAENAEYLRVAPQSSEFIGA

NCI-H1975 [2] = experiment: Antiproliferative activity against human NCI-H1975 cells expressing EGFR L858R/T790M mutant after 72 hrs by MTT assay; settings: NCI-H1975, 72 h
A-431 = experiment: Antiproliferative activity against human A431 cells expressing wild type EGFR after 72 hrs by MTT assay; settings: A-431, 72 h
[3] = Antiproliferative activity against human HCC827 cells expressing EGFR E746_A750 deletion mutant after 72 hrs by MTT assay; settings: HCC827, 72 h
[4] = Antiproliferative activity against human 16HBE cells expressing wild type EGFR after 72 hrs by MTT assay; settings: 16HBE14o-
A549 = experiment: Antiproliferative activity against wild type EGFR/k-Ras dependent human A549 cells after 72 hrs by MTT assay; settings: A549, 72 h
[5] = biological target: Epidermal growth factor receptor (Homo sapiens, UniProt P00533, L858R); experiment: Inhibition of EGFR L858R mutant (unknown origin) using Tyr 4 peptide as substrate after 1.5 hrs by FRET based Z'-lyte assay; format: protein assay
Sequence of Epidermal growth factor receptor (Homo sapiens, UniProt P00533, L858R) (P00533 25-1210 L858R limits assumed): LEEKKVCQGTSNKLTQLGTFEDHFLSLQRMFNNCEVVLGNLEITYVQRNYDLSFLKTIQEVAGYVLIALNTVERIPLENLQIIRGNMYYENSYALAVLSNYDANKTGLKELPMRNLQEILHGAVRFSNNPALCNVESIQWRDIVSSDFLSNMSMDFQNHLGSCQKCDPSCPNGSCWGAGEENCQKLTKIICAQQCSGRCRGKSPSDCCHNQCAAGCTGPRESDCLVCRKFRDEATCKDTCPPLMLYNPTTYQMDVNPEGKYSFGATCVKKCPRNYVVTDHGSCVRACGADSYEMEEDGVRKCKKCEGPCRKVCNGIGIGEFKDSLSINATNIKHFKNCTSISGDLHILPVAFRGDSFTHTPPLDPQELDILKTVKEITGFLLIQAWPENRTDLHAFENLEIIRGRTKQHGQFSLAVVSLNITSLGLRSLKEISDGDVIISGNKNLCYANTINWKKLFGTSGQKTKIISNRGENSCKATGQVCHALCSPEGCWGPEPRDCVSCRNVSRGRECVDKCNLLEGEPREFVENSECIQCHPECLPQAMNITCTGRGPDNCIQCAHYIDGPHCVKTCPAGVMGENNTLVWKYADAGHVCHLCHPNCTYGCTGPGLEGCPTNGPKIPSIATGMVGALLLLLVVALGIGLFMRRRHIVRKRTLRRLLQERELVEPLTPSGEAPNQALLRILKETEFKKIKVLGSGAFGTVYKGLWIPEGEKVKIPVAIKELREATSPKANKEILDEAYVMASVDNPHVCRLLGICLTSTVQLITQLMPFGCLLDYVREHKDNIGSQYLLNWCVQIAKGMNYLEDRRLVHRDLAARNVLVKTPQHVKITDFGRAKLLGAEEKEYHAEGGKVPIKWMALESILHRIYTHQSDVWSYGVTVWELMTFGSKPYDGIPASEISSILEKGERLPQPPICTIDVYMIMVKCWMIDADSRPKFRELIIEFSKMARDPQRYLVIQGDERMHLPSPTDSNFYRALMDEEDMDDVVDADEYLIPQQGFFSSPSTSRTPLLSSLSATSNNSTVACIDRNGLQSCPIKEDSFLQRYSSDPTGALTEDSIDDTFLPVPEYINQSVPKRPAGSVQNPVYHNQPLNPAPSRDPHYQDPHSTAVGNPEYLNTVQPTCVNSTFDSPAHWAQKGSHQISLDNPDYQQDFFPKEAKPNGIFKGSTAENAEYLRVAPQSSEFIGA

[6] = biological target: T1, Epidermal growth factor receptor (Homo sapiens, UniProt P00533); experiment: Inhibition of wild type EGFR (unknown origin) using Tyr 4 peptide as substrate after 1.5 hrs by FRET based Z'-lyte assay
T1 sequence (P00533 whole entry): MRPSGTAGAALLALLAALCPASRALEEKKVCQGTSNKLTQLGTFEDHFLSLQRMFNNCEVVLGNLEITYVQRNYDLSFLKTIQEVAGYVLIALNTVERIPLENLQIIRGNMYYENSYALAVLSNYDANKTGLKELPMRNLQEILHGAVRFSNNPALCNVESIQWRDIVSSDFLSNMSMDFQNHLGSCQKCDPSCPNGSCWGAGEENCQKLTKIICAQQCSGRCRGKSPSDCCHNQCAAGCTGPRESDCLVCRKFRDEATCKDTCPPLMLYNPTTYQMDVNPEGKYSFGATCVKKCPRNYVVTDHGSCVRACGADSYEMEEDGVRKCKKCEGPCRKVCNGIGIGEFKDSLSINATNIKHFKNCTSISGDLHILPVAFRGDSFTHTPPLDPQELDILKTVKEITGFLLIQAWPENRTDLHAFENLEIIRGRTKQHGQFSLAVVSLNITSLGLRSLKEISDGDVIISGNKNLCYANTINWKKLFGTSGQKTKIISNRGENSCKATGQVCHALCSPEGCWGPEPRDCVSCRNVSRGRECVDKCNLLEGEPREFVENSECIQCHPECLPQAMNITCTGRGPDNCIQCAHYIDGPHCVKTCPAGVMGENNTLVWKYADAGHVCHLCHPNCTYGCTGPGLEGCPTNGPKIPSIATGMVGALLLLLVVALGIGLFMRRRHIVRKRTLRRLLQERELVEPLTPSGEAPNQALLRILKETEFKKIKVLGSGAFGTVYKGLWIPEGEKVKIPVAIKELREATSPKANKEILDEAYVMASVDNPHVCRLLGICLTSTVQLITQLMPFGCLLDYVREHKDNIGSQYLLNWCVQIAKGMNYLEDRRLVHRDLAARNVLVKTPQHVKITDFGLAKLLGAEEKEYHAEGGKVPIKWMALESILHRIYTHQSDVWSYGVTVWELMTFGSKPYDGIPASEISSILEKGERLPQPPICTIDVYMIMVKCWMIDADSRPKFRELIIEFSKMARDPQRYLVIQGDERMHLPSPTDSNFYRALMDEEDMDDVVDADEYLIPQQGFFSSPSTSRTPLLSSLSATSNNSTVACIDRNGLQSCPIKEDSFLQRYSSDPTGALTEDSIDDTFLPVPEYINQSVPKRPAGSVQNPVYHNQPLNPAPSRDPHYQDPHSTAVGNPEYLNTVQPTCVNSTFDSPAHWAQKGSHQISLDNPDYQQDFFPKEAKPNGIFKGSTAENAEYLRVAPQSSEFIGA

NCI-H1975 [7] = experiment: Induction of nitric oxide production in human NCI-H1975 cells expressing EGFR L858R/T790M mutant at 100 uM after 72 hrs by Griess assay; format: functional, cell-based
[8] = biological target: T1, Epidermal growth factor receptor; experiment: Inhibition of EGFR phosphorylation in human NCI-H1975 cells after 6 hrs by Western blotting analysis; format: cell-based
NCI-H1975 [9] = experiment: Ratio of IC50 for human NCI-H1975 cells expressing EGFR L858R/T790M mutant to IC50 for human 16HBE cells
NCI-H1975 [10] = experiment: Antiproliferative activity against human NCI-H1975 cells expressing EGFR L858R/T790M mutant at 1 to 20 uM after 24 hrs by MTT assay in presence of hemoglobin; format: functional, cell-based
[11] = biological target: T1, Epidermal growth factor receptor; experiment: Inhibition of EGFR phosphorylation in human NCI-H1975 cells assessed as reduction of phosphorylated Akt level at 1 uM after 6 hrs by Western blotting analysis; format: cell-based
[12] = Ratio of IC50 for human HCC827 cells expressing EGFR E746_A750 deletion mutant to IC50 for human 16HBE cells
[13] = biological target: T1, Epidermal growth factor receptor; experiment: Inhibition of EGFR phosphorylation in human NCI-H1975 cells assessed as reduction of phosphorylated Erk level at 1 uM after 6 hrs by Western blotting analysis; format: cell-based
16HBE14o- = experiment: Induction of nitric oxide production in human 16HBE cells expressing wild type EGFR at 100 uM after 72 hrs by Griess assay; format: functional, cell-based
[14] = biological target: T1, Epidermal growth factor receptor; experiment: Inhibition of EGFR phosphorylation in human NCI-H1975 cells at 0.01 to 1 uM after 6 hrs by Western blotting analysis; format: cell-based

With `COc1cc(N2CCN(C)CC2)ccc1Nc1ncc(Cl)c(Oc2ccc(COc3no[n+]([O-])c3S(=O)(=O)c3ccccc3)cc2)n1` the IC50 [1] was 140 nM, the IC50 (NCI-H1975 [2]) was 221 nM and the IC50 (A-431) was 2200 nM. The IC50 [3] was 863 nM, the IC50 [4] was 2300 nM and the IC50 (A549) was 3660 nM. It also gave an IC50 [5] of 1530 nM and an IC50 [6] of 1090 nM.
Compound `COc1cc(N2CCN(C)CC2)ccc1Nc1ncc(Cl)c(Oc2ccc(CCOc3no[n+]([O-])c3S(=O)(=O)c3ccccc3)cc2)n1` has an IC50 [1] of 960 nM, an IC50 (NCI-H1975 [2]) of 372 nM and an IC50 (A-431) of 479 nM. It also gave an IC50 [3] of 1930 nM, an IC50 [4] of 2420 nM and an IC50 (A549) of 3750 nM. The IC50 [5] was 5360 nM, the Activity (NCI-H1975 [7]) was “Active” and the IC50 [6] was 2940 nM.
Work on `COc1cc(N2CCC(O)CC2)ccc1Nc1ncc(Cl)c(Oc2ccc(COc3no[n+]([O-])c3S(=O)(=O)c3ccccc3)cc2)n1` yielded an IC50 [1] of 250 nM, an IC50 (NCI-H1975 [2]) of 148 nM and an IC50 (A-431) of 357 nM. It also gave an IC50 [3] of 95 nM, an IC50 [4] of 2190 nM and an IC50 (A549) of 4250 nM. For the same compound, the IC50 [5] was 3220 nM and the IC50 [6] was 3150 nM.
Compound `C=CC(=O)N1CCN(c2ccc(Nc3ncc(Cl)c(Oc4cccc(COc5no[n+]([O-])c5S(=O)(=O)c5ccccc5)c4)n3)c(OC)c2)CC1` has an IC50 [1] of 45 nM, an IC50 (NCI-H1975 [2]) of 55 nM and an IC50 (A-431) of 348 nM. For the same compound, the inhibition [8] was “Dose-dependent effect”, the IC50 [3] was 22 nM and the IC50 [4] was 1930 nM. For the same compound, the “Ratio IC50” value (NCI-H1975 [9]) was 35, the Activity (NCI-H1975 [10]) was “Active” and the IC50 (A549) was 1720 nM. The inhibition [11] was “Active”, the IC50 [5] was 370 nM and the Activity (NCI-H1975 [7]) was “Active”. The IC50 [6] was 350 nM, the “Ratio IC50” value [12] was 35 and the inhibition [13] was “Active”. For the same compound, the Activity (16HBE14o-) was “Active” and the inhibition [14] was “Active”.
Work on `COc1cc(N2CCN(C)CC2)ccc1Nc1ncc(Cl)c(Oc2cccc(COc3no[n+]([O-])c3S(=O)(=O)c3ccccc3)c2)n1` yielded an IC50 [1] of 19 nM, an IC50 (NCI-H1975 [2]) of 52 nM and an IC50 (A-431) of 1360 nM. For the same compound, the IC50 [3] was 63 nM, the IC50 [4] was 2210 nM and the “Ratio IC50” value (NCI-H1975 [9]) was 35. The IC50 (A549) was 4190 nM, the IC50 [5] was 150 nM and the IC50 [6] was 130 nM. For the same compound, the “Ratio IC50” value [12] was 35.
In the case of `COc1cc(N2CCC(O)CC2)ccc1Nc1ncc(Cl)c(Oc2cccc(COc3no[n+]([O-])c3S(=O)(=O)c3ccccc3)c2)n1`, the IC50 [1] is reported as 68 nM, the IC50 (NCI-H1975 [2]) is reported as 68 nM and the IC50 (A-431) is reported as 1200 nM. The IC50 [3] was 36 nM, the IC50 [4] was 3250 nM and the “Ratio IC50” value (NCI-H1975 [9]) was 35. For the same compound, the IC50 (A549) was 3900 nM, the IC50 [5] was 490 nM and the Activity (NCI-H1975 [7]) was “Active”. The IC50 [6] was 240 nM, the “Ratio IC50” value [12] was 35 and the Activity (16HBE14o-) was “Active”.
With `COc1cc2ncnc(Nc3ccc(F)c(Cl)c3)c2cc1OCCCN1CCOCC1` the Activity (NCI-H1975 [7]) was “Active” and the Activity (16HBE14o-) was “Active”.
Compound `COc1cc(N2CCN(C)CC2)ccc1Nc1ncc(Cl)c(Oc2ccc(CCCOc3no[n+]([O-])c3S(=O)(=O)c3ccccc3)cc2)n1` has an IC50 [1] of 780 nM, an IC50 (NCI-H1975 [2]) of 315 nM and an IC50 (A-431) of 551 nM. It also gave an IC50 [3] of 4820 nM, an IC50 [4] of 3520 nM and an IC50 (A549) of 2840 nM. For the same compound, the IC50 [5] was > 10000 nM, the Activity (NCI-H1975 [7]) was “Active” and the IC50 [6] was 2280 nM.
With `C=CC(=O)Nc1cccc(Oc2nc(Nc3ccc(N4CCN(C)CC4)cc3OC)ncc2Cl)c1` the inhibition [11] was “Active”, the inhibition [13] was “Active” and the inhibition [14] was “Active”.
With `C=CC(=O)N1CCN(c2ccc(Nc3ncc(Cl)c(Oc4ccc(COc5no[n+]([O-])c5S(=O)(=O)c5ccccc5)cc4)n3)c(OC)c2)CC1` the IC50 [1] was 410 nM, the IC50 (NCI-H1975 [2]) was 154 nM and the IC50 (A-431) was 4660 nM. The IC50 [3] was 4900 nM, the IC50 [4] was 3370 nM and the IC50 (A549) was 3900 nM. The IC50 [5] was > 10000 nM and the IC50 [6] was > 10000 nM.
